# In patent US11014911B2, “CDK2 inhibitors” (Pfizer Inc., priority 2019, dated 2021):
# Molecular target: CDK2/Cyclin E1 full length (Homo sapiens (Human), UniProt P24941)
# Assay: CDK2/Cyclin E1 full length mobility shift assay
# Type: biochemical
row,Compound,Ki [nM]
1,"COc1ccc(S(C)(=O)=O)c(CC(=O)Nc2cc([C@H]3CC[C@@H](OC(=O)NCCC(F)(F)F)C3)[nH]n2)c1 [Example 224, (1R,3S)-3-[3-({[5-methoxy-2-(methylsulfonyl)phenyl]acetyl}amino)-1H-pyrazol-5-yl]cyclopentyl (3,3,3-trifluoropropyl)carbamate]",0.31
2,"CCCNC(=O)O[C@@H]1CC[C@H](c2cc(NC(=O)Cc3cc(C)ncc3S(C)(=O)=O)n[nH]2)C1 [Example 208, (1R,3S)-3-[3-({[2-methyl-5-(methylsulfonyl)pyridin-4-yl]acetyl}amino)-1H-pyrazol-5-yl]cyclopentyl propylcarbamate]",3.18
3,"CC(C)(O)CNC(=O)O[C@@H]1CC[C@H](c2cc(NC(=O)Cc3cc(F)cc(F)c3)n[nH]2)C1 [Example 574, (1R,3S)-3-(3-{[(3,5-difluorophenyl)acetyl]amino}-1H-pyrazol-5-yl)cyclopentyl (2-hydroxy-2-methylpropyl)carbamate]",4.07
4,"CC(CC(F)(F)F)NC(=O)O[C@@H]1CC[C@H](c2cc(NC(=O)Cc3ccn(C)n3)n[nH]2)C1 (single isomer, unassigned) [Example 65]",2.21
5,"Cc1cnc(CC(=O)Nc2cc([C@H]3CC[C@@H](OC(=O)N[C@H](C)C4CC4)C3)[nH]n2)cn1 [Example 471, (1R,3S)-3-(3-{[(5-methylpyrazin-2-yl)acetyl]amino}-1H-pyrazol-5-yl)cyclopentyl [(1R)-1-cyclopropylethyl]carbamate]",1.43
6,"CC(CC(F)(F)F)N(C)C(=O)O[C@@H]1CC[C@H](c2cc(NC(=O)c3cnnn3C)n[nH]2)C1 (single isomer, unassigned) [Example 411]",2.58
7,"CC[C@H](C)NC(=O)O[C@@H]1CC[C@H](c2cc(NC(=O)Cc3ccn(C)n3)n[nH]2)C1 [Example 328, (1R,3S)-3-(3-{[(1-methyl-1H-pyrazol-3-yl)acetyl]amino}-1H-pyrazol-5-yl)cyclopentyl (2S)-butan-2-ylcarbamate]",1.77
8,"C[C@H]1CCN1C(=O)O[C@@H]1CC[C@H](c2cc(NC(=O)c3ccnn3CCN(C)C)n[nH]2)C1 [Example 596, (1R,3S)-3-{3-[({1-[2-(dimethylamino)ethyl]-1H-pyrazol-5-yl}carbonyl)amino]-1H-pyrazol-5-yl}cyclopentyl (2S)-2-methylazetidine-1-carboxylate]",1.75
9,"COc1cc(CC(=O)Nc2cc([C@H]3CC[C@@H](OC(=O)NCC(F)F)C3)[nH]n2)ccn1 [Example 251, (1R,3S)-3-(3-{[(2-methoxypyridin-4-yl)acetyl]amino}-1H-pyrazol-5-yl)cyclopentyl (2,2-difluoroethyl)carbamate]",1.83
10,"CC1(NC(=O)O[C@@H]2CC[C@H](c3cc(NC(=O)Cc4coc(C5CC5)n4)n[nH]3)C2)CC1 [Example 432, (1R,3S)-3-(3-{[(2-cyclopropyl-1,3-oxazol-4-yl)acetyl]amino}-1H-pyrazol-5-yl)cyclopentyl (1-methylcyclopropyl)carbamate]",1.25
11,"COc1ccc(CC(=O)Nc2cc([C@H]3CC[C@@H](OC(=O)NC4CCOCC4)C3)[nH]n2)cc1 [Example 502, (1R,3S)-3-(3-{[(4-methoxyphenyl)acetyl]amino}-1H-pyrazol-5-yl)cyclopentyl tetrahydro-2H-pyran-4-ylcarbamate]",3.71
12,"CC[C@H](C)NC(=O)O[C@@H]1CC[C@H](c2cc(NC(=O)Cc3cnn(CC)n3)n[nH]2)C1 [Example 339, (1R,3S)-3-(3-{[(2-ethyl-2H-1,2,3-triazol-4-yl)acetyl]amino}-1H-pyrazol-5-yl)cyclopentyl (2S)-butan-2-ylcarbamate]",0.66
13,"Cc1cc(CC(=O)Nc2cc([C@H]3CC[C@@H](OC(=O)N[C@@H](C)C4CC4)C3)[nH]n2)on1 [Example 468, (1R,3S)-3-(3-{[(3-methyl-1,2-oxazol-5-yl)acetyl]amino}-1H-pyrazol-5-yl)cyclopentyl [(1S)-1-cyclopropylethyl]carbamate]",0.35
14,"Cc1cc(CC(=O)Nc2cc([C@H]3CC[C@@H](OC(=O)N[C@H](C)C4CC4)C3)[nH]n2)on1 [Example 469, (1R,3S)-3-(3-{[(3-methyl-1,2-oxazol-5-yl)acetyl]amino}-1H-pyrazol-5-yl)cyclopentyl [(1R)-1-cyclopropylethyl]carbamate]",0.31
15,"COC[C@H](C)NC(=O)O[C@@H]1CC[C@H](c2cc(NC(=O)c3cc(OC)nn3C)n[nH]2)C1 [Example 518, (1R,3S)-3-(3-{[(3-methoxy-1-methyl-1H-pyrazol-5-yl)carbonyl]amino}-1H-pyrazol-5-yl)cyclopentyl [(2S)-1-methoxypropan-2-yl]carbamate]",1.43
16,"CCCNC(=O)O[C@@H]1CC[C@H](c2cc(NC(=O)Cc3ccc(COC)cc3S(C)(=O)=O)[nH]n2)C1 [Example 215, (1R,3S)-3-[5-({[4-(methoxymethyl)-2-(methylsulfonyl)phenyl]acetyl}amino)-1H-pyrazol-3-yl]cyclopentyl propylcarbamate]",1.26
17,"CC1(NC(=O)O[C@@H]2CC[C@H](c3cc(NC(=O)CC4COc5ccccc54)n[nH]3)C2)CCOC1 (single isomer, unassigned) [Example 490]",3.68

row,Compound,Ki [nM]
1,"CC(C)(C)NC(=O)O[C@@H]1CC[C@H](c2cc(NC(=O)Cc3ncccc3F)n[nH]2)C1 [Example 301, (1R,3S)-3-(3-{[(3-fluoropyridin-2-yl)acetyl]amino}-1H-pyrazol-5-yl)cyclopentyl tert-butylcarbamate]",0.55
2,"CC(C)NC(=O)O[C@H]1CC[C@@H](c2cc(NC(=O)Cc3ccccn3)n[nH]2)C1 [Example 264, (1S,3R)-3-{3-[(pyridin-2-ylacetyl)amino]-1H-pyrazol-5-yl}cyclopentyl propan-2-ylcarbamate]",1.83
3,"CC(C)n1cc(CC(=O)Nc2cc([C@H]3CC[C@@H](OC(=O)NC4(C)CC4)C3)[nH]n2)nn1 [Example 436, (1R,3S)-3-[3-({[1-(propan-2-yl)-1H-1,2,3-triazol-4-yl]acetyl}amino)-1H-pyrazol-5-yl]cyclopentyl (1-methylcyclopropyl)carbamate]",3.3
4,"CC(CC(F)(F)F)N(C)C(=O)O[C@@H]1CC[C@H](c2cc(NC(=O)Cc3ccno3)n[nH]2)C1 (single isomer, unassigned) [Example 89]",0.85
5,"O=C(Cc1cc(F)cc(F)c1)Nc1cc([C@@H]2CC[C@H](OC(=O)NC[C@@H]3C[C@H]3CO)C2)[nH]n1 [Example 578, (1S,3R)-3-(3-{[(3,5-difluorophenyl)acetyl]amino}-1H-pyrazol-5-yl)cyclopentyl {[(1R,2R)-2-(hydroxymethyl)cyclopropyl]-methyl}carbamate]",3.64
6,"COc1cnc(CC(=O)Nc2cc([C@H]3CC[C@@H](OC(=O)NCCC(F)(F)F)C3)[nH]n2)cn1 [Example 222, (1R,3S)-3-(3-{[(5-methoxypyrazin-2-yl)acetyl]amino}-1H-pyrazol-5-yl)cyclopentyl (3,3,3-trifluoropropyl)carbamate]",2.93
7,"Cc1nnc(CC(=O)Nc2cc([C@H]3CC[C@@H](OC(=O)NC(C)(C)C)C3)[nH]n2)s1 [Example 305, (1R,3S)-3-(3-{[(5-methyl-1,3,4-thiadiazol-2-yl)acetyl]amino}-1H-pyrazol-5-yl)cyclopentyl tert-butylcarbamate]",0.52
8,Cc1cnc(CC(=O)Nc2cc([C@H]3CC[C@@H](OC(=O)NC4(C)CC4)C3)[nH]n2)cc1Cl [Example 131],0.2
9,"COc1cc(CC(=O)Nc2cc([C@H]3CC[C@@H](OC(=O)N[C@@H](C)[C@H](C)F)C3)[nH]n2)ccn1 (single isomer, unassigned) [Example 384, (1R,3S)-3-(3-{[(2-methoxypyridin-4-yl)acetyl]amino}-1H-pyrazol-5-yl)cyclopentyl [(2S*,3S*)-3-fluorobutan-2-yl]carbamate]",1.24
10,"Cc1coc(CC(=O)Nc2cc([C@H]3CC[C@@H](OC(=O)NC(C)(C)C)C3)[nH]n2)n1 [Example 296, (1R,3S)-3-(3-{[(4-methyl-1,3-oxazol-2-yl)acetyl]amino}-1H-pyrazol-5-yl)cyclopentyl tert-butylcarbamate]",0.3
11,"Cc1cnc(CC(=O)Nc2cc([C@H]3CC[C@@H](OC(=O)NCCC(F)(F)F)C3)[nH]n2)cn1 [Example 220, (1R,3S)-3-(3-{[(5-methylpyrazin-2-yl)acetyl]amino}-1H-pyrazol-5-yl)cyclopentyl (3,3,3-trifluoropropyl)carbamate]",3.26
12,"COC[C@H](C)NC(=O)O[C@@H]1CC[C@H](c2cc(NC(=O)Cc3ccc(OC)nc3)n[nH]2)C1 [Example 519, (1R,3S)-3-(3-{[(6-methoxypyridin-3-yl)acetyl]amino}-1H-pyrazol-5-yl)cyclopentyl [(2S)-1-methoxypropan-2-yl]carbamate]",0.56
13,"CCCNC(=O)O[C@@H]1CC[C@H](c2cc(NC(=O)Cc3ccccc3S(=O)(=O)NC)n[nH]2)C1 [Example 209, (1R,3S)-3-[3-({[2-(methylsulfamoyl)-phenyl]acetyl}amino)-1H-pyrazol-5-yl]cyclopentyl propylcarbamate]",1.21
14,"COc1cc(CC(=O)Nc2cc([C@@H]3CC[C@H](OC(=O)NCC4CCN(C(C)=O)CC4)C3)[nH]n2)ccn1 [Example 581, (1S,3R)-3-(3-{[(2-methoxypyridin-4-yl)acetyl]amino}-1H-pyrazol-5-yl)cyclopentyl[(1-acetylpiperidin-4-yl)methyl]carbamate]",2.62
15,"Cc1cc(CC(=O)Nc2cc([C@H]3CC[C@@H](OC(=O)N4CCCC[C@@H]4C)C3)[nH]n2)on1 [Example 640, (1R,3S)-3-(3-{[(3-methyl-1,2-oxazol-5-yl)acetyl]amino}-1H-pyrazol-5-yl)cyclopentyl (2S)-2-methylpiperidine-1-carboxylate]",0.48
16,"Cc1ncc(CC(=O)Nc2cc([C@H]3CC[C@@H](OC(=O)N[C@H]4CCC[C@H]4C)C3)[nH]n2)s1 [Example 464, (1R,3S)-3-(3-{[(2-methyl-1,3-thiazol-5-yl)acetyl]amino}-1H-pyrazol-5-yl)cyclopentyl [(1S,2R)-2-methylcyclopentyl]carbamate]",2.63
17,"CCCNC(=O)O[C@H]1CC[C@@H](c2cc(NC(=O)Cc3cn4c(C)c(C)sc4n3)n[nH]2)C1 [Example 200, (1S,3R)-3-(3-{[(2,3-dimethylimidazo[2,1-b][1,3]thiazol-6-yl)acetyl]amino}-1H-pyrazol-5-yl)cyclopentyl propylcarbamate]",2.87
